# Tested on: SW 982 tumor spheroid viability
# Test: Anticancer human tumor SW 982 cell line growth inhibition;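 note: spheroids exposed to compound for 7 days before readout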
# Conditions: spheroids with HUVEC and MSC; for IC50: curve of first compound; for viability, T/C: stronger effect = lower value
# In short: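 Complex spheroids of malignant cells with endothelial cells and mesenchymal stem cells; agents alone or combined, from near clinical Cmax (or 10 microM if unknown) down in half-log steps, 0.25% DMSO final.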
# [1] = second compound 30 pM, first compound 0.00949 µM
# [2] = second compound 30 pM, first compound 0.03 µM
# [3] = second compound 30 pM, first compound 0.0949 µM
# [4] = second compound 30 pM, first compound 0.3 µM
# [5] = second compound 30 pM, first compound 0.949 µM
# [6] = second compound 30 pM, first compound 3 µM
# [7] = second compound 94.9 pM, first compound 0.00949 µM
# [8] = second compound 94.9 pM, first compound 0.03 µM
# [9] = second compound 94.9 pM, first compound 0.0949 µM
# [10] = second compound 94.9 pM, first compound 0.3 µM
# [11] = second compound 94.9 pM, first compound 0.949 µM
# [12] = second compound 94.9 pM, first compound 3 µM
# [13] = second compound 0.0003 µM, first compound 0.00949 µM
# [14] = second compound 0.0003 µM, first compound 0.03 µM
# [15] = second compound 0.0003 µM, first compound 0.0949 µM
# [16] = second compound 0.0003 µM, first compound 0.3 µM
# [17] = second compound 0.0003 µM, first compound 0.949 µM
# [18] = second compound 0.0003 µM, first compound 3 µM
# [19] = second compound 0.000949 µM, first compound 0.00949 µM
# [20] = second compound 0.000949 µM, first compound 0.03 µM
# [21] = second compound 0.000949 µM, first compound 0.0949 µM
# [22] = second compound 0.000949 µM, first compound 0.3 µM
# [23] = second compound 0.000949 µM, first compound 0.949 µM
# [24] = second compound 0.000949 µM, first compound 3 µM
# [25] = second compound 0.003 µM, first compound 0.00949 µM
# [26] = second compound 0.003 µM, first compound 0.03 µM
# [27] = second compound 0.003 µM, first compound 0.0949 µM
# [28] = second compound 0.003 µM, first compound 0.3 µM
# [29] = second compound 0.003 µM, first compound 0.949 µM
# [30] = second compound 0.003 µM, first compound 3 µM
Compound,IC50 (second compound 30 pM) [nM],IC50 (second compound 94.9 pM) [nM],IC50 (second compound 0.0003 µM) [nM],IC50 (second compound 0.000949 µM) [nM],IC50 (second compound 0.003 µM) [nM],"viability, T/C [3] [%]","viability, T/C [4] [%]","viability, T/C [5] [%]","viability, T/C [6] [%]","viability, T/C [9] [%]","viability, T/C [10] [%]","viability, T/C [11] [%]","viability, T/C [12] [%]","viability, T/C [15] [%]","viability, T/C [16] [%]","viability, T/C [17] [%]","viability, T/C [18] [%]","viability, T/C [21] [%]","viability, T/C [22] [%]","viability, T/C [23] [%]",other results
CNCc1ccc(-c2cc(-c3nc(-c4ccc(S(=O)(=O)C(C)C)cc4)cnc3N)on2)cc1 + COc1cc2c(cc1O)CCNC21CSC2c3c(OC(C)=O)c(C)c4c(c3C(COC1=O)N1C(O)C3Cc5cc(C)c(OC)c(O)c5C(C21)N3C)OCO4,211,131,107,< 9.49,< 9.49,78.3,33.4,23.8,2.48,55.9,26.4,18.9,2.12,47.9,28.2,16.5,2.22,28.2,15.9,9.5,"viability, T/C [1]: 99.6%; viability, T/C [2]: 95.6%; viability, T/C [7]: 100%; viability, T/C [8]: 94%; viability, T/C [13]: 84.7%; viability, T/C [14]: 81%; viability, T/C [19]: 49.3%; viability, T/C [20]: 39.2%; viability, T/C [24]: 0.69%; viability, T/C [25]: 0.4%; viability, T/C [26]: 1.22%; viability, T/C [27]: 0.92%; viability, T/C [28]: 0.5%; viability, T/C [29]: 1.07%; viability, T/C [30]: 0.31%"
Cc1sc2c(c1C)C(c1ccc(Cl)cc1)=NC(CC(=O)Nc1ccc(O)cc1)c1nnc(C)n1-2 (stereo not given) + COc1cc2c(cc1O)CCNC21CSC2c3c(OC(C)=O)c(C)c4c(c3C(COC1=O)N1C(O)C3Cc5cc(C)c(OC)c(O)c5C(C21)N3C)OCO4,257,344,482,9.49,< 9.49,75.5,46.2,28.5,23.6,71.1,53.8,33.2,21.6,70.4,68,24.9,13.6,64.8,19.2,4.8,"viability, T/C [1]: 95.5%; viability, T/C [2]: 94.6%; viability, T/C [7]: 97.4%; viability, T/C [8]: 96.7%; viability, T/C [13]: 76.6%; viability, T/C [14]: 82.5%; viability, T/C [19]: 41.4%; viability, T/C [20]: 41.3%; viability, T/C [24]: 3.12%; viability, T/C [25]: 0.7%; viability, T/C [26]: 8.8%; viability, T/C [27]: 0.33%; viability, T/C [28]: 0.26%; viability, T/C [29]: 0.37%; viability, T/C [30]: 0.99%"
Cn1ncnc1[C@H]1c2n[nH]c(=O)c3cc(F)cc(c23)N[C@@H]1c1ccc(F)cc1 + COc1cc2c(cc1O)CCNC21CSC2c3c(OC(C)=O)c(C)c4c(c3C(COC1=O)N1C(O)C3Cc5cc(C)c(OC)c(O)c5C(C21)N3C)OCO4,> 3000,2740,1830,< 9.49,< 9.49,85.9,85,76.3,52.6,82,82,66.3,48.6,70,76.1,54.6,46.6,25.2,27,14.8,"viability, T/C [1]: 93.6%; viability, T/C [2]: 89.1%; viability, T/C [7]: 80.7%; viability, T/C [8]: 85.3%; viability, T/C [13]: 76%; viability, T/C [14]: 73.5%; viability, T/C [19]: 32.3%; viability, T/C [20]: 28.7%; viability, T/C [24]: 2.84%; viability, T/C [25]: 0.32%; viability, T/C [26]: 0.45%; viability, T/C [27]: 0.37%; viability, T/C [28]: 0.38%; viability, T/C [29]: 0.36%; viability, T/C [30]: 0.91%"
O=C(c1cc(Cc2n[nH]c(=O)c3ccccc23)ccc1F)N1CCN(C(=O)C2CC2)CC1 + COc1cc2c(cc1O)CCNC21CSC2c3c(OC(C)=O)c(C)c4c(c3C(COC1=O)N1C(O)C3Cc5cc(C)c(OC)c(O)c5C(C21)N3C)OCO4,7800,16300,7270,< 94.9,< 94.9,96.8,93.2,97.8,71.7,93.1,91.4,92.6,76.2,74.4,80.7,70.5,70.8,32.8,27.3,26.8,"viability, T/C (second compound 30 pM, first compound 9.49 µM): 47.4%; viability, T/C (second compound 30 pM, first compound 30 µM): 38.8%; viability, T/C (second compound 94.9 pM, first compound 9.49 µM): 59.8%; viability, T/C (second compound 94.9 pM, first compound 30 µM): 39.9%; viability, T/C (second compound 0.0003 µM, first compound 9.49 µM): 43.8%; viability, T/C (second compound 0.0003 µM, first compound 30 µM): 28.1%; viability, T/C [24]: 18.3%; viability, T/C (second compound 0.000949 µM, first compound 9.49 µM): 11.1%; viability, T/C (second compound 0.000949 µM, first compound 30 µM): 2.5%; viability, T/C [27]: 0.52%; viability, T/C [28]: 0.45%; viability, T/C [29]: 0.51%; viability, T/C [30]: 0.63%; viability, T/C (second compound 0.003 µM, first compound 9.49 µM): 0.83%; viability, T/C (second compound 0.003 µM, first compound 30 µM): 1.26%"

# From PubChem BioAssay AID1845216 (Molecular Pharmacology Branch, DTP, NCI, 2023)
